# Literature values in patent publication US6838451B1, “Methods and compositions for the prevention and treatment of inflammation, osteoarthritis, and other degenerative joint diseases” (Pharmanutrients, priority 2000, dated 2005).
# Experiments:
# [1] = dietary supplement
Compound,excreted as exhaled carbon dioxide (of the absorbed glucosamine) [%],excreted in the urine (of the absorbed glucosamine) [%],remaining in the tissues (of the absorbed glucosamine) [%],absorbed from the small intestine (sulfate form),toxicity [1]
N[C@H]1C(O)O[C@H](CO)[C@@H](O)[C@@H]1O (some centres unmarked) [glucosamine],65,25,10,over 90%,
conjugated linoleic acid,,,,,nontoxic
